In US20150030989A1, “Handheld Device for Delivering Photodynamic Therapy” (The Forsyth Institute, priority 2012, published 2015):
Where two headings read alike, the source gives them in different places.

Columns and labels:
[1] = test system: osteoblasts; details: for reduction of viability, MB alone: human, 50 μg/mL
Description: (§1) In this study, the viability of human gingival fibroblasts and osteoblasts in vitro was assessed after exposure to methylene blue (MB) and red light with parameters similar to those that may be applied in a clinical setting. […] Both cell types were sensitized with 50 μg/mL methylene blue followed by exposure to red light at 665 nm for 5 minutes with an irradiance of 10, 20, and 40 mW/cm^2. The power densities were 10, 20, and 40 mW/cm^2, corresponding with energy fluencies of 3, 6, and 12 J/cm^2, respectively. In previous studies, light with a power density of 100 mW/cm^2 was used for killing endodontic pathogens within infected root canal specimens in vitro. A portion of that light propagates in dentin and escapes from the tooth. The power density of light escaping from the root specimen ranges from 5 to 10 mW/cm^2 depending on the morphology of the root canal system. In the present study, up to fourfold greater power densities were used.
(§2) After photodynamic therapy (PDT), cell viability and mitochondrial activity were evaluated by the neutral red and MTT assay, respectively. The assessment of PDT-induced apoptosis was investigated by western blot analysis using cleaved poly(ADPribose) polymerase-specific antibodies. […] Osteoblasts (A) and fibroblasts (B) were treated with MB only (lane MB+), light only (lane L+), or light and MB (lane L+MB+). Control cultures were left untreated (lane −) or treated with 200 μmol/L staurosporine (lane +). Twenty-four hours after treatment, cultures were stopped and analyzed by western blot using cleaved PARP− and b-actin-specific antibodies.

[2] = test system: osteoblasts
Description: (§3) FIG. 7 presents two bar graphs on the growth of methylene blue (MB)-sensitized gingival fibroblasts and osteoblasts as determined by the MTT assay after their exposure to red light.
as §1, §2

[3] = test system: osteoblasts; assay: PDT-induced apoptosis, western blot for cleaved PARP, osteoblasts; type: cell-based, human; details: twenty-four hours after treatment
Description: as §2

[4] = test system: human gingival fibroblasts; assay: Cell viability, neutral red assay, fibroblasts; type: cell-based; details: 50 μg/mL MB, no light, 0 and 24 hours
Description: as §1
After photodynamic therapy (PDT), cell viability and mitochondrial activity were evaluated by the neutral red and MTT assay, respectively. The assessment of PDT-induced apoptosis was investigated by western blot analysis using cleaved poly(ADPribose) polymerase-specific antibodies. […] Twenty-four hours after treatment, cultures were stopped and analyzed by western blot using cleaved PARP− and b-actin-specific antibodies.

[5] = test system: Porphyromonas gingivalis (ATCC 33277); assay: PDT on endodontic pathogens in planktonic phase: P. gingivalis; type: cell-based; details: methylene blue 25 μg/ml, 5 minutes; for Surviving species, PDT: red light 665 nm 30 J/cm^2
Description: (§4) The effects of PDT were investigated on endodontic pathogens in planktonic phase as well as on Enterococcus faecalis biofilms in experimentally infected root canals of extracted teeth. Strains of Porphyromonas gingivalis (ATCC 33277), P. intermedia (ATCC 25611), Fusobacterium nucleatum nucleatum (ATCC 25586), Peptostreptocococcus micros (ATCC 33270), Porphyromonas endodontalis (ATCC 35406), and E. faecalis (ATCC 29212) were sensitized with methylene blue (MB) (25 μg/ml) for 5 minutes followed by exposure to res light of 665 nm with an energy fluence of 30 J/cm^2. […] In Table 1, Surviving species are expressed as percentage-of-controls receiving neither methylene blue nor light. Each value is the mean of values obtained from 2 to 4 experiments (±standard error). The same concentration of MB in combination with red light (222 J/cm^2) was able to eliminate 97% of E. faecalis biofilm bacteria in root canals. Light was uniformly delivered at 360 degrees in the root canal system with a flexible optical fiber with cylindrical diffusers and a diameter of 500 μm. Table 1 presents the survival of endodontic bacteria after their incubation only with methylene blue (25 μg/ml) or methylene blue (25 μg/ml) and red light (30 J/cm^2): […]

[6] = test system: Enterococcus faecalis biofilms; assay: PDT on E. faecalis biofilms in experimentally infected root canals of extracted teeth; type: cell-based; details: MB 25 μg/ml in combination with red light 222 J/cm^2
Description: The effects of PDT were investigated on endodontic pathogens in planktonic phase as well as on Enterococcus faecalis biofilms in experimentally infected root canals of extracted teeth. Strains of Porphyromonas gingivalis (ATCC 33277), P. intermedia (ATCC 25611), Fusobacterium nucleatum nucleatum (ATCC 25586), Peptostreptocococcus micros (ATCC 33270), Porphyromonas endodontalis (ATCC 35406), and E. faecalis (ATCC 29212) were sensitized with methylene blue (MB) (25 μg/ml) for 5 minutes followed by exposure to res light of 665 nm with an energy fluence of 30 J/cm^2. […] In Table 1, Surviving species are expressed as percentage-of-controls receiving neither methylene blue nor light. Each value is the mean of values obtained from 2 to 4 experiments (±standard error). […] Light was uniformly delivered at 360 degrees in the root canal system with a flexible optical fiber with cylindrical diffusers and a diameter of 500 μm.

[7] = test system: P. intermedia (ATCC 25611); assay: PDT on endodontic pathogens in planktonic phase: P. intermedia; type: cell-based, Prevotella intermedia; details: methylene blue 25 μg/ml, 5 minutes; for Surviving species, PDT: red light 665 nm 30 J/cm^2
Description: as §4

[8] = test system: human gingival fibroblasts; assay: PDT-induced apoptosis, western blot for cleaved PARP, fibroblasts; type: cell-based; details: twenty-four hours after treatment
Description: as §2

[9] = test system: Porphyromonas endodontalis (ATCC 35406); assay: PDT on endodontic pathogens in planktonic phase: P. endodontalis; type: cell-based; details: methylene blue 25 μg/ml, 5 minutes; for Surviving species, PDT: red light 665 nm 30 J/cm^2
Description: as §4

[10] = test system: Peptostreptocococcus micros (ATCC 33270); assay: PDT on endodontic pathogens in planktonic phase: P. micros; type: cell-based; details: methylene blue 25 μg/ml, 5 minutes, mean ± standard error; for Surviving species, PDT: red light 665 nm 30 J/cm^2
Description: as §4

[11] = test system: human gingival fibroblasts; details: 24 h, 50 μg/mL
Description: as §3, §1, §2

[12] = test system: multispecies root canal biofilms comprising Actinomyces israelii, Fusobacterium nucleatum subspecies nucleatum, Porphyromonas gingivalis, and Prevotella …; assay: PDT on multispecies root canal biofilms in extracted human teeth, CFU assay; type: cell-based; details: MB 25 μg/mL 10 minutes, red light 665 nm 30 J/cm^2
Description: The photodynamic effects of methylene blue (MB) on multispecies root canal biofilms comprising Actinomyces israelii, Fusobacterium nucleatum subspecies nucleatum, Porphyromonas gingivalis, and Prevotella intermedia in experimentally infected root canals of extracted human teeth were investigated in vitro.
Root canal systems were incubated with MB (25 μg/mL) for 10 minutes followed by exposure to red light at 665 nm with an energy fluence of 30 J/cm^2. Light was delivered from a diode laser via a 250-μm diameter polymethyl methacrylate optical fiber that uniformly distributed light over 360 degrees (FIG. 2). […] In FIG. 5, each bar is the mean Logic, CFU levels (+standard error).

[13] = test system: Fusobacterium nucleatum nucleatum (ATCC 25586); assay: PDT on endodontic pathogens in planktonic phase: F. nuc. nuc.; type: cell-based; details: methylene blue 25 μg/ml, 5 minutes, mean ± standard error; for Surviving species, PDT: red light 665 nm 30 J/cm^2
Description: as §4

[14] = test system: E. faecalis (ATCC 29212)
[15] = test system: E. faecalis (ATCC 29212); assay: PDT on endodontic pathogens in planktonic phase: E. faecalis; type: cell-based, Enterococcus faecalis
Description: as §4

`OCl` [sodium hypochlorite] was tested, and the “effect of sodium hypochlorite on osteoblasts, neutral red assay” value [1] was “completely eliminated cells” and the “effect of sodium hypochlorite on osteoblasts, MTT assay” value [2] was “completely eliminated cells”.

In the case of `CN(C)c1ccc2nc3ccc(=[N+](C)C)cc-3sc2c1` [methylene blue], the “PARP cleavage, light and MB” value ([3]; lane L+MB+) is reported as “Neither treatment resulted in PARP cleavage”, the “PARP cleavage, MB only” value ([3]; lane MB+) is reported as “Neither treatment resulted in PARP cleavage” and the “effect of MB alone on viability” value [4] is reported as “no effect”. For the same compound, the “Surviving species, only methylene blue” value ([5]; no light, mean ± standard error) was 6.7 ± 0.1 percentage-of-controls, the “Surviving species, PDT” value [5] was 0 percentage-of-controls and the “Surviving species, PDT” value ([5]; listed as MB) was “fully eliminated”. For the same compound, the “E. faecalis biofilm bacteria in root canals eliminated” value [6] was 97%, the “reduction of viability, MB alone” value ([1]; 0 h) was 9.4% and the “reduction of viability, MB alone” value ([1]; 24 h) was 14.6%. The “Surviving species, only methylene blue” value ([7]; no light) was 0 percentage-of-controls, the “Surviving species, PDT” value [7] was 0 percentage-of-controls and the “Surviving species, PDT” value ([7]; listed as MB) was “fully eliminated”. The “PARP cleavage, light and MB” value ([8]; lane L+MB+) was “Neither treatment resulted in PARP cleavage”, the “PARP cleavage, MB only” value ([8]; lane MB+) was “Neither treatment resulted in PARP cleavage” and the “Surviving species, only methylene blue” value ([9]; no light) was 0 percentage-of-controls. The “Surviving species, PDT” value [9] was 0 percentage-of-controls, the “Surviving species, PDT” value ([9]; listed as MB) was “fully eliminated” and the “Surviving species, only methylene blue” value ([10]; no light) was 21 ± 10.6 percentage-of-controls. For the same compound, the “Surviving species, PDT” value [10] was 0 percentage-of-controls, the “Surviving species, PDT” value ([10]; listed as MB) was “fully eliminated” and the “reduction of mitochondrial activity, L40+MB+” value [11] was 18.5%. For the same compound, the “reduction of mitochondrial activity, MB alone” value ([2]; human, 0 h, 50 μg/mL) was 3.1%, the “reduction of mitochondrial activity, L20+MB+” value ([2]; human, 24 h, 50 μg/mL) was “approximately 34%” and the “reduction of mitochondrial activity, L40+MB+” value ([2]; human, 24 h, 50 μg/mL) was “approximately 34%”. For the same compound, the “reduction of mitochondrial activity, MB alone” value ([2]; human, 24 h, 50 μg/mL) was 13.5%, the “reduction of colony-forming unit counts (CFU), PDT” value [12] was “up to 80%” and the “mean CFU levels, combination of light and MB versus control or MB alone” value ([12]; FIG. 5) was “significantly lower than either control or MB alone”. For the same compound, the “Surviving species, only methylene blue” value ([13]; no light) was 5.5 ± 0.4 percentage-of-controls, the “Surviving species, PDT” value [13] was 0 percentage-of-controls and the “Surviving species, PDT” value ([13]; listed as MB) was “fully eliminated”. For the same compound, the “reduction of E. faecalis viability, PDT” value ([14]; 6.25 μg/ml MB 5 minutes, light 665 nm 60 J/cm^2) was 77.5%, the “reduction of bacterial viability, MB alone” value ([14]; 6.25 μg/ml MB, no light) was 19.5% and the “Surviving species, only methylene blue” value ([15]; methylene blue 25 μg/ml, 5 minutes, no light, mean ± standard error) was 94.5 ± 17.6 percentage-of-controls. The “Surviving species, PDT” value ([15]; methylene blue 25 μg/ml, 5 minutes, red light 665 nm 30 J/cm^2, mean ± standard error) was 47 ± 12.1 percentage-of-controls and the killing ([15]; planktonic, MB 25 μg/ml 5 minutes, light 665 nm 30 J/cm^2) was 53%.
